Source: ChEMBL document CHEMBL3739372 (Bioorg Med Chem, 2015)

How the values were obtained:
Influenza A virus = experiment: Antiviral activity against Influenza A virus infected in MDCK cells after 72 hrs by yield reduction assay; assay type: functional, organism-based
[1] = Inhibition of Influenza B virus wild type neuraminidase
[2] = Cytotoxicity against MDCK cells after 72 hrs by XTT assay; assay type: cell-based, Canis lupus familiaris; conditions: dog

| Compound | EC50 (Influenza A virus) [µM] | IC50 [1] [µM] | CC50 at 72 h [2] [µM] |
| --- | --- | --- | --- |
| CCOC(=O)C1=C[C@@H](OC(CC)CC)[C@H](NC(C)=O)[C@@H](N)C1 [OSELTAMIVIR] | 0.03 | 16 | 321 |
| CCOC(=O)c1cn(CC)c2ccc(-n3cc(C4=CCCCC4)nn3)cc2c1=O | 0.2 | 22 | 566 |
